Values quoted from earlier work as cited in US9044505B2, “Multimeric biotinidase resistant multimodality probes” (priority 2012, dated 2015).

Test system: (strept)avidin
Conditions: (strept)avidin-biotin interaction

O=C(O)CCCC[C@@H]1SC[C@@H]2NC(=O)N[C@@H]21 [biotin]
Ka: 10^15 M
